According to patent US8906952B2, “Indole derivative or pharmaceutically acceptable salt thereof, preparation method thereof, and pharmaceutical composition for preventing or treating metabolic diseases containing same as active ingredient” (Korea Research Institute of Bioscience and Biotechnology, priority 2011, dated 2014):
Where two headings read alike, the source gives them in different places.

Experiments:
[1] = test system: HepG2 cells; test: DGAT inhibitory effect in HepG2 cells (triglyceride production from [14C]glycerol); assay type: cell-based; details: Homo sapiens; for activity at 10 µM: HepG2, 6 h, DMSO control = 100, read-out: Triglyceride production rate (%)/HepG2 cells at 10 μM; for inhibition at 10 µM: HepG2, 10 μM, read-out: biosynthesis inhibition rate of triglyceride
Experimental: To investigate inhibition effect on intracellular DGAT enzyme activity of the compounds obtained in Examples 1-51, intracellular DGAT enzyme activity was measured using human-derived liver HepG2 cells.
HepG2 cells were purchased from ATCC, and cultured in 37° C., 5% CO2 incubator including minimum essential medium (2 mM L-glutamine, earle's BSS adjusted to contain 1.5 g/L sodium bicarbonate, 0.1 mM nonessential amino acids, and 1 mM sodium pyruvate) added with 10% fetal bovine serum (FBS) and 1% antibiotic (100 U/ml penicillin and 100 µg/ml streptomycin).
The intracellular DGAT enzyme activity was measured based on an amount of triglycerides produced in the cultured HepG2 cells, by adding 10 μM enzyme inhibitor compounds obtained in Examples 1-51, respectively, and then determining the effect of the enzyme inhibitors according to reduction rate of the triglyceride production.
Specifically, cells were seeded 1×10^6 cell/ml per well of the 24 well culture plate, and 24 hours after incubation, medium was exchanged with FBS-free DMEM medium, and sample of 0.2 mCi [^14C]glycerol (Amersham) was added as substrate, and the reaction was allowed to occur for 6 hr. The induced production of triglyceride was catalyzed by the DGAT enzyme, and DGAT enzyme activity was determined based on the amount of production of triglyceride which was measured based on the amount of radiation. The sample was dissolved in dimethylsulfoxide (DMSO) to be used, and the control group in the triglyceride production reaction was reacted with dimethylsulfoxide only (i.e., without sample), and the amount of the triglyceride production rate was set to 100.
After the reaction completed, the substrate [^14C]glycerol which was either not absorbed into cells or not used for the reaction, were removed with phosphate-buffer-saline (PBS), and 0.5 ml extraction solvent (hexane:isopropanol=3:2, v:v) was added to extract full fat containing triglycerides. With 0.5 ml extraction solvent, extract was obtained two times for 30 min each, and 1 ml of the extract was concentrated with nitrogen gas. After removing the extraction solvent, the total fat was dissolved in organic solvent (chloroform:methanol=2:1) and spotted with thin-layer chromatography (TLC:silica gel 60F254, thickness: 0.5 mm, Merck) on the developing solvent (hexane:diethyl ether:acetic acid=80:20:1, v: v: v). Triglycerides (Rf value: 0.4) were isolated on TLC, and after exposing the TLC plate to the film with photosensitivity to radiation energy (imaging plate' Fujifilm, BMS-MS 2040) for 3 hr, the amount of [^14C] radiation of triglyceride was measured by imaging analysis (FLA 7000). The remaining cells after the extraction were dissolved in 0.3 ml 0.1 N sodium hydroxide for use in the measurement of protein concentration of the cells used for the reaction.
The experimental errors among the respective experimental groups were compensated with the experimental value which was obtained by dividing the measured radiation of triglyceride by protein concentration, and the production rate of triglyceride according to the respective compounds of Examples 1-51 are tabulated below.

[2] = target: T1, human DGAT1 (Homo sapiens, UniProt O75907); test: DGAT enzyme inhibition test, hDGAT1 enzyme from sf9 insect cells; assay type: biochemical; details: enzyme from sf9 cells overexpressing hDGAT1; read-out: hDGAT-1 (sf9) IC50
T1 construct: made in house; host or cells: sf9 insect cells
T1 sequence (O75907 1-488): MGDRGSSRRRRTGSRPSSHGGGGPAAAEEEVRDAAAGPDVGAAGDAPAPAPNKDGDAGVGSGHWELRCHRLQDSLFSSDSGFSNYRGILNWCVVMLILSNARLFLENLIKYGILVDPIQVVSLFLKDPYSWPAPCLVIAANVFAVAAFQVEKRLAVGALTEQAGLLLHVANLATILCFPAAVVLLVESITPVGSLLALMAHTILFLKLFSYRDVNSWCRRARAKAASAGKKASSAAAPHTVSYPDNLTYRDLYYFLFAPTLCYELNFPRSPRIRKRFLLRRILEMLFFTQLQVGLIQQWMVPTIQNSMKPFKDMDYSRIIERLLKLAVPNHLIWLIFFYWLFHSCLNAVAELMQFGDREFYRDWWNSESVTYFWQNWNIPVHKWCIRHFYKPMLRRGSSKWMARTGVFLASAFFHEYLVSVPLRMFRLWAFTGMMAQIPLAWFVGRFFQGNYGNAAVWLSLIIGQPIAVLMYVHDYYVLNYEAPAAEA
Text: (§1) To investigate inhibitory effect of the compounds of Examples 1-33 against DGAT enzyme activity, DGAT enzyme inhibition and DGAT2 selectivity were investigated using zymogen including:
(§2) 1) hDGAT1 and hDGAT2 enzymes, derived from insect cell overexpressing human DGAT1 and DGAT2 (‘sf9’), respectively,
(§3) To be specific, for the purpose of measuring human-derived DGAT enzyme inhibitory activity, using the zymogen, including enzymes derived from insect cell overexpressing human DGAT1 and DGAT2 (‘sf9’), microsomal protein isolated from human duodenal adenocarcinoma (‘Hutu 80’), and microsomal protein isolated from rat, and according to Coleman et al., (Methods Enzymol., 98-103, 1992), and substrate including 1,2-diacylglycerol(Sigma, D0138) and [^14C]palmitoyl-CoA (Amersham, CFA583), the amount of radiation of [^14C]triacylglycerol produced after enzymatic reaction was measured.
(§4) To be more specific, to the reaction solution containing 175 mM Tris-HCl (pH 8.0), 20 μl bovine serum albumin (10 mg/ml), 100 mM magnesium chloride, 30 μM [^14C]palmitoyl CoA (0.02 μCi, Amersham) and 200 μM 1,2-dioleoylglycerol, reagent dissolved in dimethylsulfoxide (10.0 μl) was added. After introducing 100 to 200 μg isolated microsomal protein and allowing the same to react at 25° C. for 10 min, the reaction was stopped by adding 1.5 ml stop solution (2-propanol:heptane:water=80:20:2, v:v:v). To isolate the product of the reaction (i.e., [^14C]triacylglycerol), 1 ml heptane and 0.5 ml distilled water were added and then decocted. After taking 1 ml supernatant, 2 ml alkaline ethanol solution (ethanol:0.5 N sodium hydroxide:water=50:10:40, v:v:v) were added and then decocted. After taking 0.65 ml supernatant from the decoction, the amount of radiation was measured with liquid scintillation counter (LSC). The DGAT inhibitory activity was calculated with Mathematical Expression 1 below:
(§5) T denotes cpm of experimental group in which the enzymatic reaction solution was treated with the sample,
(§6) C denotes cpm of control group in which the enzymatic reaction solution was not treated with the sample, and
(§7) B denotes cpm of control group treated with the sample without zymogen.

[3] = target: T2, human DGAT2 (Homo sapiens, UniProt Q96PD7); test: DGAT enzyme inhibition test, hDGAT2 enzyme from sf9 insect cells (DGAT2 selectivity); assay type: biochemical
T2 construct: made in house; host or cells: sf9 insect cells
T2 sequence (Q96PD7 1-388): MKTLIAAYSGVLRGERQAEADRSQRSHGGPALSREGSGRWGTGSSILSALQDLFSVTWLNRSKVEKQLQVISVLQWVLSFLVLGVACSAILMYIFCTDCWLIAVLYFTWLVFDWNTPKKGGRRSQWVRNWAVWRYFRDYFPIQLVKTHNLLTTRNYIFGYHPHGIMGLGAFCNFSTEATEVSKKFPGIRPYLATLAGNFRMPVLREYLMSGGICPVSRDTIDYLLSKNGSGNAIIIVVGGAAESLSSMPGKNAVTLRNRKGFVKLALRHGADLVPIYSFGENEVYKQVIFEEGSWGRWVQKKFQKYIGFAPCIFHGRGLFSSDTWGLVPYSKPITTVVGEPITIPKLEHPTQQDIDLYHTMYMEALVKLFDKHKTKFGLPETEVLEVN
Text: as §1, §2, §3, §4, §5, §6, §7

[4] = 10 μM, enzyme from sf9 cells overexpressing hDGAT2, read-out: hDGAT-2 (sf9) inhibition rate(%)at 10 μM
[5] = concentration of 10 μM, read-out: hDGAT2 inhibition

| Compound | activity at 10 µM [1] [%] | IC50 [2] [µM] | inhibition at 10 µM [3, 4] [%] | inhibition at 10 µM [3, 5] [%] | inhibition at 10 µM [1] [%] |
| --- | --- | --- | --- | --- | --- |
| Cc1ccc2c(c1)c(/C=C/C(=O)N(NC(=O)c1cccc(F)c1)C(C)C)cn2C(=O)OC(C)(C)C [Example 35, (E)-tert-butyl 3-(3-(2-(3-fluorobenzoyl)-1-isopropylhydrazinyl)-3-oxoprop-1-enyl)-5-methyl-1H-indole-1-carboxylate] | 57.6 | 3.2 | 2 | < 11 |  |
| CC(C)N(NC(=O)c1cccc(F)c1)C(=O)/C=C/c1cn(C)c2ccccc12 [Example 40, (E)-3-fluoro-N′-isopropyl-N′-(3-(1-methyl-1H-indol-3-yl)acryloyl)benzohydrazide] | 90 | > 100 | 2.2 |  |  |
| CCn1cc(/C=C/C(=O)N(NC(=O)c2cccc(F)c2)C(C)C)c2ccccc21 [Example 41, (E)-N′-(3-(1-ethyl-1H-indol-3-yl)acryloyl)-3-fluoro-N′-isopropylbenzohydrazide] | 79.4 | 8.1 | 20.3 |  | 20 to 30 |
| CC(C)=CCn1cc(/C=C/C(=O)N(NC(=O)c2cccc(C)c2)C(C)C)c2ccccc21 [Example 50, (E)-N′-isopropyl-3-methyl-N′-(3-(1-(3-methylbut-2-enyl)-1H-indol-3-yl)acryloyl)benzohydrazide] |  | 4.6 | 39 |  |  |
| CCCn1cc(/C=C/C(=O)N(NC(=O)c2cccc(F)c2)C(C)C)c2ccccc21 [Example 42, (E)-3-fluoro-N′-isopropyl-N′-(3-(1-propyl-1H-indol-3-yl)acryloyl)benzohydrazide] | 79.9 | 3.6 | 32.4 |  | 20 to 30 |
| CC(C)CCn1cc(/C=C/C(=O)N(NC(=O)c2cccc(F)c2)C(C)C)c2ccccc21 [Example 39, (E)-3-fluoro-N′-(3-(1-isopentyl-1H-indol-3-yl)acryloyl)-N′-isopropylbenzohydrazide] | 50.8 | 1.8 | 42.3 |  |  |
| CC(C)=CCn1cc(/C=C/C(=O)N(NC(=O)c2cccc(F)c2)C(C)C)c2ccccc21 [Example 34] | 58 | 7.2 | 18.5 |  |  |
| CC(C)=CCn1cc(/C=C/C(=O)N(NC(=O)c2ccc(C)cc2)C(C)C)c2ccccc21 [Example 51, (E)-N′-isopropyl-4-methyl-N′-(3-(1-(3-methylbut-2-enyl)-1H-indol-3-yl)acryloyl)benzohydrazide] |  | 9.9 | 37.1 |  |  |
| CC(C)c1ccc2c(/C=C/C(=O)N(NC(=O)c3cccc(F)c3)C(C)C)cn(C(=O)OC(C)(C)C)c2c1 [Example 36, (E)-tert-butyl 3-(3-(2-(3-fluorobenzoyl)-1-isopropylhydrazinyl)-3-oxoprop-1-enyl)-6-isopropyl-1H-indole-1-carboxylate] | 75 | > 100 | 3.6 |  | 20 to 30 |
| CC(C)N(NC(=O)c1cccc(Cl)c1)C(=O)/C=C/c1cn(C(=O)OC(C)(C)C)c2ccccc12 [Example 45, (E)-tert-butyl 3-(3-(2-(3-chlorobenzoyl)-1-isopropylhydrazinyl)-3-oxoprop-1-enyl)-1H-indole-1-carboxylate] | 97.9 | 2.2 | 28.7 |  |  |
| Cc1ccc2c(/C=C/C(=O)N(NC(=O)c3cccc(F)c3)C(C)C)cn(C(=O)OC(C)(C)C)c2c1 [Example 37, (E)-tert-butyl 3-(3-(2-(3-fluorobenzoyl)-1-isopropylhydrazinyl)-3-oxoprop-1-enyl)-6-methyl-1H-indole-1-carboxylate] | 79.2 | > 100 | 2.9 |  | 20 to 30 |
| CC(C)N(NC(=O)c1cccc(F)c1)C(=O)/C=C/c1cn(C(=O)OC(C)(C)C)c2cc(F)ccc12 [Example 38, (E)-tert-butyl 6-fluoro-3-(3-(2-(3-fluorobenzoyl)-1-isopropylhydrazinyl)-3-oxoprop-1-enyl)-1H-indole-1-carboxylate] | 85.7 | > 100 | < 0 |  |  |
| CC(C)N(NC(=O)c1ccncc1)C(=O)/C=C/c1cn(C(=O)OC(C)(C)C)c2ccccc12 [Example 43, (E)-tert-butyl 3-(3-(2-isonicotinoyl-1-isopropylhydrazinyl)-3-oxoprop-1-enyl)-1H-indole-1-carboxylate] | 81.3 | 4 | 0.6 | < 11 |  |
